Results as given in ChEMBL document CHEMBL5107983, “Adipocyte fatty acid binding protein 4 (FABP4) inhibitors. An update from 2017 to early 2022” (Eur J Med Chem, 2022).

Assays:
[1] = target: T1, Fatty acid-binding protein, adipocyte (Homo sapiens, UniProt P15090); test: Inhibition of FABP4 (unknown origin) incubated for 10 mins by fluorescence based analysis
[2] = target: T1, Fatty acid-binding protein, adipocyte; test: Displacement of 1,8-ANS from human recombinant FABP4 incubated for 4 mins by fluorescence based analysis
[3] = target: T1, Fatty acid-binding protein, adipocyte; test: Inhibition of human FABP4

T1 sequence (P15090 whole entry): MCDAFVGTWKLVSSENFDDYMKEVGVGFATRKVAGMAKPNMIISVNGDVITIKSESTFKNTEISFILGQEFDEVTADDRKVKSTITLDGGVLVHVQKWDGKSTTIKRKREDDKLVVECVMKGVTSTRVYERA

Structure (SMILES) | IC50 [1] | further results
CC(C)OC(=O)C(C(=O)C(F)(F)F)c1cc(NS(=O)(=O)c2ccccc2)ccc1O (configuration not stated) | – | IC50 [2]: 3.5 µM
O=C(O)c1cccc(NS(=O)(=O)c2ccc(Br)c3ccccc23)c1 | – | IC50 [3]: 5.5 µM
COc1cc(Br)c(C(C)(C)C)cc1S(=O)(=O)Nc1ccccc1C(=O)O | – | IC50 [3]: 1.5 µM

The next lines start with results.

IC50 [1] | Structure (SMILES) | further results
5.59 µM | O=C(O)Cc1cn(-c2ccccc2-c2nc(-c3ccccc3)c(-c3ccccc3)s2)nn1 | –
2.23 µM | C=CCn1c(=O)[nH]c(=O)c2[nH]c(-c3ccc(OCCNC(=O)c4ccccc4)cc3)cc21 | –
4.31 µM | O=C(O)Cc1cn(-c2ccccc2-c2nc(-c3ccc(Cl)cc3)c(-c3ccccc3)s2)nn1 | –
3.7 µM | O=C(O)Cc1cn(-c2ccccc2-c2nc(-c3ccc4ccccc4c3)c(-c3ccccc3)s2)nn1 | –
